Several values for one entry are separate records, joined by “and”; a condition that tells them apart may be missing. Equal values may be shown once. Entries after “also recorded” stand apart in the source; their conditions may differ.
Key:
[1] = DPRA-like chemoassay with Lys-pNA (24 h percent depletion); conditions: 25 °C, 50-fold excess of test compound
Protocol: (§1) In addition to the kinetic Gly-pNA chemoassay, the reactivity of the 27 compounds toward Gly-pNA and Lys-pNA was determined in terms of percentage depletions after reacting for 24 h at 25 °C employing the following DPRA-like setup: stock solutions for the test compounds were prepared by gravimetrically adding at least 3 mg of the respective compound into a glass vial (total volume 1.8 mL) and subsequent addition of 1 mL ACN. […] The stock solutions for Gly-pNA and Lys-pNA with a final concentration of 1.7 mM were prepared by dissolving the required amount in one of the three aqueous buffer solutions used for this DPRA-like chemoassay: phosphate buffer (80 mM, pH 7.4), phosphate buffer (80 mM, pH 10.2), and ammonium acetate buffer (100 mM, pH 10.2). Glass vials (1.8 mL) were used as reaction vessels.
(§2) In the final reaction mixtures, the concentration of Gly-pNA or Lys-pNA was 0.03 mM, and the test compound was 50 times in excess (1.5 mM). After incubation for 24 h at 25 °C, the free amount of either Gly-pNA or Lys-pNA was determined using the HPLC UV–vis method described for the kinetic Gly-pNA chemoassay. , The percentage depletion of Gly-pNA (D Gly) or Lys-pNA (D Lys) was determined directly from peak areas according to eq 3 Dx[%]=(Axcontrol−Ax/Axcontrol×100)withx=GlyorLys
(§3) In eq , A x and A x ^control are the peak areas of the chromatographic signal of either Gly-pNA (x = Gly) or Lys-pNA (x = Lys) at 315 nm after 24 h incubation with and without test compound, respectively.
(§4) Summary of experimental conditions of the DPRA-like setups used to determine
(§5) DGly, D Lys, and D DPRA data in Table 2 (main text).
(§6) Table S2. Overview of experimental conditions for the DPRA-like setups used to
(§7) determine 24 h percentage depletion rates for the reaction of the test compounds with
(§8) Gly-pNA, Lys-pNA, and the DPRA lysine peptide (literature data).

[2] = physchem
Protocol: To this end, the test compound was dissolved in 1 mL ACN in a glass vial. […] As reaction batches, 1.8 mL glass vials equipped with 400 μL glass inserts were used and filled with 220 μL of the respective aqueous buffer and 80 μL of the test compound stock solution. The depletion of the test compounds was recorded with the HPLC UV–vis instrument used for the kinetic Gly-pNA chemoassay. , Chromatographic separation of the reaction mixture was achieved using the gradient described for the Gly-pNA chemoassay previously , and an isocratic HPLC method (water/ACN 70:30, both with 0.1 vol % formic acid). The wavelengths used for the detection of the compound and the information on the used chromatographic method are given in the Supporting Information in Table S3.

[3] = DPRA-like chemoassay with Gly-pNA (24 h percent depletion); conditions: PPB pH 7.4, 24 h, 25 °C, 50-fold excess of test compound
Protocol: as §1, §2, §3, §4, §5, §6, §7, §8

[4] = test system: DPRA lysine peptide; set-up: method as in literature; conditions: AAB pH 10.2, 24 h; ref literature; cited from earlier work
[5] = Kinetic Gly-pNA chemoassay (second-order rate constant k Gly);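 also: Gly-pNA depletion followed over time by chromatographic peak area, with test compound in at least tenfold excess (pseudo-first-order), added from acetonitrile stock, at least three runs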
[6] = ref Krutz et al., Sadekar et al., Ponder et al., Karol et al., Hopkins et al.; cited from earlier work
[7] = AAB (ammonium acetate buffer) pH 10.2, 24 h
[8] = reaction with Gly-pNA, phosphate buffer 80 mM, 25 °C, nominal test compound concentration, ≥ values are minimum reactivity
[9] = buffer, pH 7.4, half-lives t 1/2 ± s(t 1/2), PPB (phosphate buffer 80 mM) pH 7.4
[10] = buffer, pH 10.2, half-lives t 1/2 ± s(t 1/2), AAP (ammonium acetate buffer 100 mM) pH 10.2
[11] = buffer, pH 10.2, half-lives t 1/2 ± s(t 1/2), PPB (phosphate buffer 80 mM) pH 10.2
[12] = reaction with Gly-pNA, phosphate buffer, nominal test compound concentration
[13] = aqueous ammonium acetate buffer with acetonitrile, pH 10.2
[14] = PPB (phosphate buffer 80 mM) pH 7.4
[15] = PPB (phosphate buffer 80 mM) pH 10.2
[16] = determined using the free (not bound by water) fraction of F1

Structure (SMILES)	D Lys ± s(D Lys), 24 h percent depletion of Lys-pNA [1, 7]	D Lys ± s(D Lys), 24 h percent depletion of Lys-pNA ([1]; PPB pH 10.2, 24 h)	D Gly ± s(D Gly), 24 h percent depletion of Gly-pNA [3]	D DPRA ± s(D DPRA), depletion of the DPRA lysine peptide [4]	k Gly ± s(k Gly), second-order rate constant [5, 8]	Classification as potential respiratory sensitizer or non-sensitizer [6]	half-life [2, 9]	half-life [2, 10]	half-life [2, 11]	log k Gly [5, 12]	also measured
Cc1ccc(N=C=O)cc1N=C=O [A1, 2,4-Toluene diisocyanate]	18.8 ± 0.6%	100%	100%	22.0 ± 1.4%	≥33484 ± 803 L mol^–1 min^–1						half-life ([2]; buffer, pH 7.4, half-lives t 1/2 ± s(t 1/2)): < 1 min; half-life ([2]; buffer, pH 10.2, half-lives t 1/2 ± s(t 1/2)): < 1 min
O=C=Nc1cccc2c(N=C=O)cccc12 [A2, 1,5-naphthalene diisocyanate]	19.9 ± 3.7%	100%	100%		≥24928 ± 12821 L mol^–1 min^–1	potential respiratory sensitizer	3.6 ± 1.6 min	< 1 min	2.6 ± 1.1 min	≥4.40	
Cc1c(N=C=O)cccc1N=C=O [A3, 2,6-toluene diisocyanate]	20.7 ± 1.4%	100%	100%	26.5 ± 0.7%	≥20880 ± 695 L mol^–1 min^–1	potential respiratory sensitizer	< 1 min	< 1 min	< 1 min	≥4.32	
O=C=NCCCCCCN=C=O [B1, hexamethylene diisocyanate]	23.3 ± 0.3%	98.7 ± 2.2%	100%	41.6 ± 7.3%	451 ± 33 L mol^–1 min^–1	potential respiratory sensitizer				2.65	
CC1(C)CC(N=C=O)CC(C)(CN=C=O)C1 (centres unmarked) [B2, isophorone diisocyanate]	21.5 ± 0.3%	100%	100%	28.0%	256 ± 6 L mol^–1 min^–1	potential respiratory sensitizer				2.41	
O=C1C=CC(=O)O1 [C4, maleic anhydride]	12.0 ± 1.1%	100%	100%	54.0 ± 25.5%	≥5930 ± 160 L mol^–1 min^–1		35.3 ± 1.3 min	< 1 min	2.7 min	3.77	
O=C1OC(=O)C2C3C=CC(C3)C12 (centres unmarked) [C5, himic anhydride]	29.6 ± 0.3%	98.9 ± 0.1%	100%		4126 ± 114 L mol^–1 min^–1	potential respiratory sensitizer				3.62	half-life [2, 13]: < 1 min; half-life ([2]; aqueous phosphate buffer with acetonitrile, pH 7.4): 6.79 ± 0.13 min; half-life ([2]; aqueous phosphate buffer with acetonitrile, pH 10.2): 1.3 ± 0.41 min; k Gly ± s(k Gly), second-order rate constant ([5]; reaction with Gly-pNA, phosphate buffer 80 mM, 25 °C, nominal test compound concentration, ≥ values are minimum reactivity, listed as himic anhydride): 4126 L mol^–1 min^–1
CC12CC=CCC1C(=O)OC2=O (centres unmarked) [D2, methyltetrahydrophthalic anhydride]	18.0 ± 0.9%	100%	100%		2051 ± 32 L mol^–1 min^–1	potential respiratory sensitizer	2.24 ± 0.03 min	< 1 min	< 1 min	3.31	
O=[N+]([O-])c1ccc(S(=O)(=O)Cl)c([N+](=O)[O-])c1 [E1, 2,4-dinitrobenzenesulfonyl chloride]	13.4% and 13.4 ± 0.8%	62.6% and 62.6 ± 4.2%	56.1% and 56.1 ± 0.5%				< 1 min	< 1 min	< 1 min		
Clc1nc(Cl)nc(Cl)n1 [E2, 2,4,6-trichloro-1,3,5-triazine]	91.1 ± 1.1%	100%	100%	99.7 ± 0.6%	≥1424 ± 364 L mol^–1 min^–1		1.14 ± 0.05 min	< 1 min	< 1 min		
O=[N+]([O-])c1ccc(F)c([N+](=O)[O-])c1 [E3, 1-fluoro-2,4-dinitrobenzene]	84.0 ± 3.3%	100%	72.7% and 72.7 ± 0.7%		3.95 ± 0.07 L mol^–1 min^–1	non-sensitizer		73.2 ± 9.7 min	615 ± 31 min	0.6	half-lives t 1/2 ± s(t 1/2) [2, 14]: no depletion
O=[N+]([O-])c1ccc(Cl)c([N+](=O)[O-])c1 [E4, 1-chloro-2,4-dinitrobenzene]	5.0 ± 0.7%	8.1 ± 0.5%		21.1 ± 16.3%		non-sensitizer				–2.20	half-lives t 1/2 ± s(t 1/2) ([2]; AAP (ammonium acetate buffer 100 mM) pH 10.2): did not show any significant signal depletion; also recorded: no depletion; half-lives t 1/2 ± s(t 1/2) [2, 14]: no depletion; half-lives t 1/2 ± s(t 1/2) [2, 15]: no depletion
C=C(C#N)C(=O)OCC [F1, ethyl 2-cyanoacrylate]	1.6 ± 0.2%	40.2% and 40.2 ± 1.9%	98.3 ± 0.1%		2.22 ± 0.33 L mol^–1 min^–1					0.35	k Gly ± s(k Gly), second-order rate constant [5, 16]: 10886 L mol^–1 min^–1 and 10886 ± 1589 ^c L mol^–1 min^–1; log k Gly [5, 16]: 4.02 and 4.04; free (reactive) fraction, not bound to water ([5]; in the Gly-pNA chemoassay setup): < 0.1%
C=C(C)C(=O)OC [F5, methyl methacrylate]	0.7 ± 0.3%	2.6 ± 1.3%		10.6 ± 0.8%				3060 ± 625 min	1880 ± 488 min		half-lives t 1/2 ± s(t 1/2) [2, 14]: no depletion
Cc1ccc(S(=O)(=O)NCl)cc1 [G2, chloramine T]	23.9 ± 1.6%	53.8 ± 2.9%	100%	80.8 ± 30.7%	41.9 ± 0.2 L mol^–1 min^–1					1.62	half-lives t 1/2 ± s(t 1/2) [2, 14]: no depletion; half-lives t 1/2 ± s(t 1/2) [2, 15]: no depletion; half-life [2, 13]: 58.5 ± 1.3 min

From article PMC12175168, “Refining the Amino Reactivity-Based Identification of Respiratory Sensitizers” (Chemical Research in Toxicology, 2025)
